{"source": "patent US10376535B2", "about": "“Therapy for malignant disease” (UNIVERSITY OF ROCHESTER, priority 2015, dated 2019)", "key": {"PD-L1 [1]": {"test_system": "PD-L1", "test": "PD-L1 immunofluorescence after MeTC7 treatment, human ovarian carcinoma cells (SKOV-3, OVCAR-8, IGROV-1)", "assay_type": "cell-based", "settings": "MeTC7 125 nM, 4-6 hours", "protocol": "(§1) Co-localization of VDR and PD-L1 was performed following the method in the Examples above. To determine the expression level of PD-L1 after MeTC7 treatment (125 nM), 10000 cells/well of SKOV-3, OVCAR-8 human ovarian carcinoma cells, IGROV-1 human ovarian carcinoma cells, and ID-8 murine ovarian cancer cells were seeded in an 8 well slide chamber (Nunc) and allowed to adhere overnight in FBS supplemented DMEM media. After 18 hours, the media was removed and the cells were treated with vehicle or MeTC7 supplemented DMEM serum free media for 4-6 hours. Cells maintained in DMEM medium were fixed with formalin solution for 15 mins, washed with PBST solution and blocked with Donkey serum 5% in PBST for 30 minutes. Cells were carefully washed and stained with PD-L1 primary antibody overnight in PBST. The cells were washed and stained with corresponding fluorescence linked secondary antibody for 1 hour. Cells were washed repeatedly with PBST (200 μL) five times. Casing on the chambers were removed and DAPI was applied in a mounting medium and images were recorded using an epi or confocal microscopy."}, "PD-L1 [2]": {"test_system": "PD-L1", "test": "PD-L1 immunofluorescence after MeTC7 treatment, DAOY medulloblastoma cells", "assay_type": "cell-based, human", "settings": "MeTC7 125 nM, confocal microscopy", "protocol": "FIG. 12 is a fluorescent micrograph depicting the effects of MeTC7 (125 nM) treatment on immune checkpoint PD-L1 expression in DAOY (human) medulloblastoma cells. Treated/naïve DAOY cells were analyzed by spinning disk confocal microscopy after staining with PD-L1 primary and suitable secondary antibodies.\nas §1, with “Cells were washed repeatedly with PBST (200 μL) five times.” left out"}, "PD-L1 [3]": {"test_system": "PD-L1", "test": "PD-L1 expression after MeTC7 treatment, melanoma cells", "assay_type": "cell-based"}, "PD-L1 [4]": {"test_system": "PD-L1", "test": "PD-L1 immunofluorescence after MeTC7 treatment, ID-8 murine ovarian cancer cells", "assay_type": "cell-based", "settings": "MeTC7 125 nM, 4-6 hours", "protocol": "as §1"}, "SKOV-3 cells": {"test_system": "SKOV-3 cells", "test": "Tumor size in SKOV-3 xenograft, cisplatin-resistant murine model of ovarian cancer", "assay_type": "in vivo", "settings": "SKOV-3 xenograft nude mice; IP; oligos 7 mg/kg, cisplatin 10 mg/kg once a week; measured every 3 days", "protocol": "Four to six week-old immunodeficient nude mice were maintained at a temperature of ˜22° C. and a relative humidity of ˜55%, with a 12 hour light/dark cycle. The mice used were NU/NU; strain code 088/homozygous, obtained from Charles River Laboratories, Wilmington, Mass. The inoculation of the mice began with culturing SKOV-3 cells to 80% confluence, washing the SKOV-3 cells in PBS twice, and harvesting the cells by trypsination. The harvested cells were then pooled in complete medium, washed in PBS twice, and 2×10^6 cells/inoculate were suspended in 0.1 ml of matrigel. This cell suspension was used to inoculate the mice subcutaneously in the flank of each mouse. Mice with developing tumors after two weeks were randomly assigned to experimental groups. Mice were treated intraperitoneally with either vehicle control (control group; 7 animals) or Antisense-1 (7 mg/kg bwt) or scrambled PTO (7 mg/kg bwt) for 7 days. In another arm mice were treated with cisplatin (10 mg/kg, once a week), or scrambled PTO (7 mg/kg, 5 times/week)+ cisplatin (10 mg/kg, IP, once a week) or Antisense-1 (7 mg/kg, IP, once a week)+ Cisplatin (10 mg/kg, IP, once a week). Mice were weighed and tumor size was measured using a digital caliper every 3 days."}, "PD-1": {"test_system": "PD-1", "test": "RT-PCR of PD-1 in donor PBMCs incubated with recombinant HE4", "assay_type": "cell-based, human", "settings": "HE4 5.4 nM, donor PMBCs, within 6 hours", "protocol": "Ficoll-Paque density gradient centrifugation was used to isolate PBMC from heparinized venous blood. Unfractionated PBMC were suspended in serum free RPMI1640 medium. Then the cells were incubated with recombinant HE4 (5.4 nM) or vehicle for 6 hours. TRIzol reagent was used to isolate the total RNA, and the first strand cDNA was made by SuperScript III reverse transcriptase. RT-PCR for the cDNA was done with PD-1 or GAPDH (internal control) gene specific primers. The primer sequences used for PD-1 are F-[…] (SEQ ID NO:4); R-[…] SEQ ID NO:5). The primer sequences used for internal control (GAPDH) are F-AATCCCATCACCATCTTCC SEQ ID NO:6); R-gTCCTTCCACgATACCAAAg SEQ ID NO:7)."}}, "data": [{"molecule": "CC(C)CCC[C@@H](C)C1CC[C@H]2C34C=CC5(C[C@@H](OC(=O)CBr)CC[C@]5(C)[C@H]3CC[C@]12C)n1c(=O)n(C)c(=O)n14", "note": "(stereo partly drawn) [MeTC7]", "values": [{"measurement": "PD-L1 expression", "setting": "PD-L1 [1]", "value": "down regulate"}, {"measurement": "PD-L1 expression", "setting": "PD-L1 [2]", "value": "reduced PD-L1 expression"}, {"measurement": "PD-L1 expression", "setting": "PD-L1 [3]", "value": "a similar effect was not found"}, {"measurement": "PD-L1 expression", "setting": "PD-L1 [4]", "value": "down regulate"}]}, {"molecule": "N.N.[Cl][Pt][Cl]", "note": "[cisplatin]", "values": [{"measurement": "percent change in tumor size", "setting": "SKOV-3 cells", "value": "an increase in tumor size at least initially"}]}, {"molecule": "recombinant HE4: exogenous recombinant human epididymis protein 4 added to PBMCs (protein, UniProt Q14508 31-124, looked up) WAP four-disulfide core …: EKTGVCPELQADQNCTQECVSDSECADNLKCCSAGCATFCSLPNDKEGSCPQVNINFPQLGLCRDQCQVDSQCPGQMKCCRNGCGKVSCVTPNF", "values": [{"measurement": "increase in PD-1 expression (PD-1/GAPDH ratio)", "setting": "PD-1", "value": 77.7, "unit": "%"}]}]}
